Measurements as given in patent US5075337A, “Alpha-deuterated 2-alkylaminoacetamide derivatives having reduced toxicity for treatment of CNS disorders” (G. D. Searle & Co., priority 1989, dated 1991).

Tests used:
[1] = Comparative pharmacokinetic study, 1:1 mixture of milacemide and ^2 H-milacemide; type: in vivo, cynomolgus monkey (Macaca fascicularis); conditions: for ^2 H-milacemide/milacemide ratio, plasma AUC / ^2 H-milacemide/milacemide ratio, urine 24 hours excretion: 1:1 mixture
Protocol: A comparative pharmacokinetic study was conducted in the cynomolgus monkey (Macaca fascicularis) with a 1:1 mixture of milacemide and ^2 H-milacemide administered to 4 males and 4 females used in this study. One animal of each sex received the mixture either by the i.v. route at the dose of 30 mg/kg, or by the intragastric route at the dose of 30 mg/kg or 100 mg/kg, or 300 mg/kg. Plasma samples were drawn from the males and 0-24 hours urine samples were collected by the females. Preliminary determinations of milacemide in the urine samples were made by HPLC. […] The aqueous solution was made alkaline by the addition of 0.3 mL of 0 5M borate buffer at pH 9.3. Derivatization occurs by addition of 0.3 mL of a solution of fluorescamine in acetone (75 g/L), then 10 to 20 pL aliquots were injected on a 5 Bondapak C18 column eluted by a mixture of tetrahydrofuran, water and 0.5M borate buffer (2/6/2) adjusted to pH 8 by the addition of hydrochloric acid. […] Analysis of the ratio of unchanged deutero milacemide versus milacemide, was performed by GC-MS Milacemide and ^2 H-milacemide extracted from plasma aliquots were transformed into their respective N-trifluoroacetylated nitrile by reaction with trifluoroacetic anhydride. After separation from the impurities, on a 3% OV 17 column, the mass spectra were obtained in the chemical ionization mode by ammonia on a Riber 10-10 B mass spectrometer. […] Quantification was performed using selected ion monitoring (SIM) on the base peaks mentioned.

[2] = molecular target: T1, monoamine oxidase enzyme (MAO-B) (Rattus norvegicus, UniProt P19643); experiment: MAO-B enzyme inhibition assay (rat brain mitochondria, preincubation with inhibitor); type: biochemical, rat (Sprague Dawley)
T1 construct: 14C-beta-phenylethylamine substrate
T1 sequence (P19643 1-520): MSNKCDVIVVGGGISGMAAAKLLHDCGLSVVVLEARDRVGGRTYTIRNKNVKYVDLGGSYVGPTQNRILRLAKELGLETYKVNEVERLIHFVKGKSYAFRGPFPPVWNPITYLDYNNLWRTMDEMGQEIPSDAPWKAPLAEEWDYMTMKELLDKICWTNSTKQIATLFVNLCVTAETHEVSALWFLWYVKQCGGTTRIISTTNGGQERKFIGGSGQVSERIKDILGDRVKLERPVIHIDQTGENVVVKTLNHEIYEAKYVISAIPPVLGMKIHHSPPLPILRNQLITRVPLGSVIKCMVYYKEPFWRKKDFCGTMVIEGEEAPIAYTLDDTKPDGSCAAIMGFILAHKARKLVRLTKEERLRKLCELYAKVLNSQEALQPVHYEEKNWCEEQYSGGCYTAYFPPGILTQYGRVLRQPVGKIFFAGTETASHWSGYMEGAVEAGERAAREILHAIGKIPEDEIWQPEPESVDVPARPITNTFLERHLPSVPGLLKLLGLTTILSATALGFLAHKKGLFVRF
Protocol: Rat brain mitochondria were purified by a modification of the method of Dodd (Dodd Sprague Dawley rats of about 200 gr were decapitated and the brain was rapidly removed from the skull. Brains were homogenized with a glass-Teflon homogenizer in ice cold 0.32M sucrose (1/10, w/v). The homogenate was centrifuged at 2,400 g for 10 min at 4° C. The supernatant was centrifuged at 3,000 g for 10 min at 4° C. This last supernatant (8 ml) was poured into at tube containing 4 ml of 1.2M sucrose. The mitochondrial fraction is obtained after a centrifugation at 115,000 g for 30 min at 4° C. The mitochondrial pellet was suspended in 4 ml of 50 mM Na phosphate buffer and stored as aliquots at -30° C. […] Aliquots of the mitochondrial fraction were preincubated with ^2 H-milacemide or milacemide (200 μM in 50 mM Na phosphate buffer pH8) for different time periods, the samples were diluted with the incubation buffer, centrifuged and the pelleis were then used for the MAO assay. The enzymatic assay was performed in Eppendorf micro tubes (1.5 ml). The 100 μl total incubation volume contained 40 μl of 7 mM ^14 C-β-phenylethylamine, 20 μl of 50 mM Na phosphate buffer pH 8 and 40 μl of the pre-incubated mitochondrial fraction (0.2 mg protein/ml). The closed micro tubes were immediately shaken using a vortex and incubated during 4 min at 37° C. The reaclion was stopped by adding 20 μl of 1.5 N Hcl into the tube placed in an ice bath. The deaminated products were extracted with 600 μl of a toluene-ethyl acetate mixture (water saturated) and strongly mixed during 30 sec. The two layers were separated by centrifugation (10.000 g) for 10 min. Then, 400μL of the organic layer were added to 4 ml of lumagel in a scintillation counting vial. Blank values are obtained by incubating the mitochondrial fraction with Hcl 1.5M.

[3] = tested on: convulsions induced by 3-mercaptopropionic acid (3-MPA); experiment: Prevention of chemically induced convulsions (3-MPA); type: in vivo, mouse (male Swiss albino); conditions: 100 mg/kg oral; 3-MPA 120 mg/kg subcutaneously; two groups of 5 mice
Protocol: (§1) The anticonvulsive effect of a compound of the invention was examined for clonic, tonic convulsions and death induced by different convulsant agents, namely, 3-mercaptopropionic acid (3-MPA 120 mg/kg subcutaneously) and bicuculline (BIC, 0.6 mg/kg intravenously), (W. van Dorsser, D. Barris, A. Cordi and J. Roba; Arch. Int. Pharmacodyn., 266: 239-249 (1983)). The compounds of the invention were administered orally at dosage of either 100 mg/kg (3-MPA) or 30 mg/kg (BIc) in a volume of 10 ml/kg, each to 5 mice, 30 minutes or 2 hours before convulsions were induced. Test mice used were male Swiss albino mice weighing 22-33 g, CDl, charles River, France, housed in group of 10 on a 12 hours light-dark cycle for at least 1 week before use, and fasted overnight. The number of mice protected against tonic convulsions and the number of dead mice were noted. The results are given as a score which represents the total number of mice protected by a dose of 100 mg/kg for two groups of 5 animals (3-MPA) or the percentage of mice protected by a dose of 30 mg/kg in 4 groups of 5 animals (BIC).

[4] = tested on: convulsions induced by bicuculline (BIC); experiment: Prevention of chemically induced convulsions (bicuculline); type: in vivo, mouse (male Swiss albino); conditions: 30 mg/kg oral; bicuculline 0.6 mg/kg intravenously; 4 groups of 5 mice
Protocol: as §1

[5] = in words; literature; cited from earlier work
[6] = tested on: MAO-B enzyme; conditions: in words; literature; cited from earlier work
[7] = compared with milacemide, in words
[8] = 200 μM, preincubation, pH 8, rat brain mitochondria, 50% inhibition

| SMILES | ^2 H-milacemide/milacemide ratio, plasma AUC ([1]; 30 mg/kg i.g.) | ^2 H-milacemide/milacemide ratio, urine 24 hours excretion ([1]; 30 mg/kg i.g.) | ^2 H-milacemide/milacemide ratio, plasma AUC ([1]; 30 mg/kg i.v.) | ^2 H-milacemide/milacemide ratio, urine 24 hours excretion ([1]; 30 mg/kg i.v.) | ^2 H-milacemide/milacemide ratio, plasma AUC ([1]; 100 mg/kg i.g.) | ^2 H-milacemide/milacemide ratio, urine 24 hours excretion ([1]; 100 mg/kg i.g.) | ^2 H-milacemide/milacemide ratio, plasma AUC ([1]; 300 mg/kg i.g.) | ^2 H-milacemide/milacemide ratio, urine 24 hours excretion ([1]; 300 mg/kg i.g.) | first pass effect [1, 7] | half-life [1, 7] | metabolic clearance [1, 7] | time to reach the same level of inhibition (50%) of MAO-B [2, 8] | fold more time needed to reach the same level (50%) of MAO-B inhibition, ^2 H-milacemide vs milacemide ([2]; ^2 H-milacemide relative to milacemide) | 3-MPA (% Protected) [3] | BIC (% Protected) [4] | time to inhibit MAO-B activity by 50% [2, 8] | brain bioavailability [5] | metabolism in the peripheral system by the MAO-B enzyme [6] |
| --- | --- | --- | --- | --- | --- | --- | --- | --- | --- | --- | --- | --- | --- | --- | --- | --- | --- | --- |
| [2H]C([2H])(CCCC)NCC(N)=O [^2 H-milacemide, 2-(1,1-dideuteropentylamino)acetamide] | 14.6 | 7.4 | 2.6 | 3.1 | 9.2 | 5.2 | 7.1 | 3.7 | reduced first pass effect | prolonged | decreased metabolic clearance | at least 3 hours | 6 fold | 10% | 45% | – | – | – |
| CCCCCNCC(N)=O [milacemide, 2-n-pentylaminoacetamide, reference compound] | – | – | – | – | – | – | – | – | – | – | – | – | – | 20% | 65% | 30 min | limited brain bioavailability | metabolized in the peripheral system by the MAO-B enzyme |
| NNCCc1ccccc1 [phenelzine] | – | – | – | – | – | – | – | – | – | – | – | – | – | – | – | – | limiting its brain bioavailability | metabolized in the peripheral system by the MAO-B enzyme |
